Results taken from article PMC12457078, “Inhibition of soluble epoxide hydrolase in endotoxin induced pig lung injury” (Frontiers in Pharmacology, 2025).
“And” between values parts separate entries of the source, which are not always exact repeats. Identical values can stand only once.

Test system: endotoxin-induced lung injury
Assay: porcine model of LPS-induced acute lung injury: haemodynamics, ventilation/mechanics, blood gases, P/F, chemistry, temperature, survival
Format: in vivo, pig
Set-up: AF baseline / AF end / Ven. sat end: unit not given here
Method: The animals were bred for purpose at the Forslunda Agricultural School in Umeå, Sweden. The pigs were pairwise kept in 8 m^2 pens before start of experiments and were fed twice daily with a commercially available pig diet without antimicrobials, and with free access to water. Photoperiods were 12:12 h light:dark. Room temperature in their stall was 20 °C ± 1 °C.
After overnight fasting, but with free access to water and hay, animals were pre-medicated with ketamine (Ketaminol vet® 100 mg/mL; Intervet International B.V, Boxmeer, Netherlands), xylazine (Rompun® vet 20 mg/mL; Bayer Animal Health, Copenhagen, Denmark) and atropine (Atropin Mylan 0.5 mg/mL; Mylan AB, Stockholm, Sweden) by intramuscular injection before an auricular vein was cannulated. Anesthesia was induced with ketamine and midazolam (Midazolam Hameln 5 mg/mL, Hameln Pharmaceuticals, Hameln, Germany) and maintained with ketamine, midazolam, xylazine and fentanyl (Fentanyl 0.05 mg/mL, B. Braun Medical AB, Danderyd, Sweden). The animals were orotracheally intubated and ventilated with tidal volume 8–9 mL/kg, PEEP 8 cmH2O, and a respiratory rate set to achieve an end-tidal carbon dioxide of 5–5.5 kPa.
One animal served as a pharmacokinetic pilot, with arterial and venous catheters placed in a cut-down in the neck. The remaining 21 animals were used for the randomized study (Figure 1). After intubation and start of mechanical ventilation, a second auricular vein cannula was placed and infusion of either AEPU or placebo according to randomization was started. After 2 h of infusion of AEPU or placebo, an infusion of LPS was started. A bolus of 0.1 mg/kg was administered during 30 min after which the infusion rate was adjusted to 0.01 mg/kg/h. During the time between start of AEPU or placebo and LPS infusion, neck dissection was performed, exposing the v jugularis externa and carotid artery. A pulmonary artery introducer and an arterial cannula were placed in vein and artery respectively, and a pulmonary artery catheter introduced through the introducer and the tip placed in the correct position in the pulmonary artery placement guided by continuous invasive pressure monitoring or, when difficult, assisted by fluoroscopy. All surgical procedures were performed under sterile conditions.
AEPU was synthesized according to Kim et al. ([Kim et al., 2007]), delivered in 60 mg vials and dissolved in 30 mL pure ethanol as a co-solvent, of which either 20 mL was added to 980 mL of sodium chloride 9 mg/mL or 8 mL–392 mL sodium chloride, creating a solution of 0.04 mg/mL AEPU and 2% ethanol. The placebo infusion was prepared by adding either 20 mL of pure ethanol to 980 mL of sodium chloride 9 mg/mL or 8 mL of pure ethanol to 392 mL sodium chloride, creating a 2% ethanol solution. Each animal received an infusion of either 0.1 mg/kg/h AEPU or the corresponding volume of placebo solution.
A total of 200 mg of prefabricated lipopolysaccharides (LPS, Escherichia coli serotype 0,111:B4, Sigma-Aldrich (Product no L4130), St. Louis, MO, United States of America) was dissolved in 40 mL of sterile water, carefully mixed and filtered, creating a solution of 5 mg/mL. This preparation was stored frozen (−20 °C) in 1 mL partitions. For each animal, 2 mL of the thawed solution was mixed and diluted in 18 mL of sodium chloride, finally creating a 0.5 mg/mL LPS solution for infusion.
All animals were monitored with pulse oximetry, heart rate, ECG, systemic arterial blood pressure (ABP), pulmonary arterial pressure (PAP), central venous pressure (CVP) temperature, tidal volumes, respiratory rate and end tidal carbon dioxide. At baseline, and at 3 h, 6 h and at the end of the experiment, pulmonary capillary wedge pressure (PCWP) was measured together with arterial and venous blood gas analyses, as well as cardiac output calculations. […]

[1] = individual animals, 3 h, listed as sEH-i 950
[2] = individual animals, 6 h, listed as sEH-i 950
[3] = individual animals, end, listed as sEH-i 950
[4] = last available measurement, AEPU group

**Q.** Which “PaO2 3 h” value [1] does the source give for CCOCCOCCOCCCCCNC(=O)NC12CC3CC(CC(C3)C1)C2 [Compound 950] here?
**A.** The value was 22.1 kPa and 20.1 kPa and 17 kPa and 22.7 kPa and 19.3 kPa and 16.7 kPa and 9 kPa and 8.1 kPa and 7.3 kPa and 14.7 kPa.

**Q.** What about the “SBP 3 h” value [1] of the same compound?
**A.** Its value is 124 mmHg and 122 mmHg and 103 mmHg and 102 mmHg and 110 mmHg and 101 mmHg and 162 mmHg and 123 mmHg and 78 mmHg and 116 mmHg.

**Q.** And the “SPAP 3 h” value [1]?
**A.** The value was 82 mmHg and 46 mmHg and 45 mmHg and 53 mmHg and 66 mmHg and 58 mmHg.

**Q.** What about the “Ven. sat 3 h” value [1] of the same compound?
**A.** Its value is 69 and 79 and 74 and 62 and 58 and 49 and 34.

**Q.** What about the “CO 6 h” value [2] of the same compound?
**A.** Its value is 3.2 L/min and 3.3 L/min and 3.1 L/min and 1.7 L/min and 2.4 L/min.

**Q.** What about the “CVP 6 h” value [2] of the same compound?
**A.** The value was 14 mmHg and 16 mmHg and 22 mmHg and 15 mmHg and 26 mmHg and 25 mmHg.

**Q.** And the “HR 6 h” value [2]?
**A.** Its value is 170 and 173 and 175 and 138 and 120 and 226 and 116 and 162.

**Q.** What about the “MAP 6 h” value [2] of the same compound?
**A.** The value was 82 mmHg and 60 mmHg and 94 mmHg and 91 mmHg and 66 mmHg and 55 mmHg.

**Q.** And the “MPAP 6 h” value [2]?
**A.** Its value is 35 mmHg and 44 mmHg and 42 mmHg and 24 mmHg and 49 mmHg and 41 mmHg and 43 mmHg.

**Q.** What about the “PCWP 6 h” value [2] of the same compound?
**A.** Its value is 19 mmHg and 17 mmHg and 18 mmHg and 21 mmHg.

**Q.** What about the “PaCO2 6 h” value [2] of the same compound?
**A.** The value was 5.1 kPa and 5.9 kPa and 6.2 kPa and 5.3 kPa and 5.5 kPa and 4.4 kPa and 6.3 kPa and 8 kPa and 9.4 kPa.

**Q.** What about the “PaO2 6 h” value [2] of the same compound?
**A.** Its value is 19.6 kPa and 12.3 kPa and 11.8 kPa and 18.6 kPa and 18.5 kPa and 14.7 kPa and 8.7 kPa and 9.4 kPa and 6.8 kPa and 7.9 kPa.

**Q.** And the “SBP 6 h” value [2]?
**A.** The value was 104 mmHg and 106 mmHg and 119 mmHg and 88 mmHg and 110 mmHg and 100 mmHg and 95 mmHg.

**Q.** And the “SPAP 6 h” value [2]?
**A.** Its value is 42 mmHg and 47 mmHg and 48 mmHg and 36 mmHg and 57 mmHg and 44 mmHg and 52 mmHg and 53 mmHg.

**Q.** What about the “Ven. sat 6 h” value [2] of the same compound?
**A.** Its value is 57 and 59 and 45 and 73 and 68 and 44 and 46 and 7 and 10.

**Q.** And the “MPAP (vid max SPAP)” value (individual animals, at max SPAP, listed as sEH-i 950)?
**A.** The value was 60 mmHg and 52 mmHg and 62 mmHg and 57 mmHg and 84 mmHg and 66 mmHg and 47 mmHg.

**Q.** And the CO end [3]?
**A.** The CO end was 3.9 L/min and 2.8 L/min and 3.6 L/min and 5.2 L/min and 0 L/min and 1.4 L/min.

**Q.** What about the CVP end [3] of the same compound?
**A.** The CVP end was 17 mmHg and 15 mmHg and 13 mmHg and 20 mmHg.

**Q.** What about the HR end [3] of the same compound?
**A.** The HR end was 163 and 147 and 150 and 130 and 165 and 160 (0) and 135.

**Q.** What about the MAP end [3] of the same compound?
**A.** The MAP end was 55 mmHg and 56 mmHg and 105 mmHg and 64 mmHg and 67 mmHg and 42 mmHg and 43 mmHg.

**Q.** And the MPAP end [3]?
**A.** The MPAP end was 30 mmHg and 50 mmHg and 33 mmHg and 24 mmHg and 40 mmHg and 43 mmHg and 48 mmHg.

**Q.** What about the PCWP end [3] of the same compound?
**A.** Its PCWP end is 17 mmHg and 22 mmHg and 16 mmHg and 15 mmHg and 25 mmHg.

**Q.** And the PaCO2 end [3]?
**A.** Its PaCO2 end is 5.3 kPa and 6.1 kPa and 4.8 kPa and 4.4 kPa and 7.3 kPa and 6.4 kPa.

**Q.** What about the PaO2 end [3] of the same compound?
**A.** Its PaO2 end is 19.9 kPa and 13.4 kPa and 12 kPa and 19.5 kPa and 12.2 kPa and 4.4 kPa and 8.7 kPa.

**Q.** And the SBP end [3]?
**A.** Its SBP end is 102 mmHg and 103 mmHg and 116 mmHg and 97 mmHg and 92 mmHg and 66 mmHg and 70 mmHg.

**Q.** What about the SPAP end [3] of the same compound?
**A.** The SPAP end was 38 mmHg and 57 mmHg and 43 mmHg and 29 mmHg and 47 mmHg and 49 mmHg and 54 mmHg.

**Q.** And the Ven. sat end [3]?
**A.** Its Ven. sat end is 69 and 54 and 58 and 56 and 70 and 19.

**Q.** And the SPAP max (individual animals, maximum, listed as sEH-i 950)?
**A.** The SPAP max was 73 mmHg and 71 mmHg and 91 mmHg and 70 mmHg and 72 mmHg and 84 mmHg and 80 mmHg and 75 mmHg.

**Q.** What about the Bilirubin [4] of the same compound?
**A.** The Bilirubin was 11.1 (8.6–18.8) μmol/L.

**Q.** And the CVP [4]?
**A.** Its CVP is 16 (15–17) mmHg.

**Q.** And the Compliance [4]?
**A.** The Compliance was 7.9 (7.3–9.7) ml/cmH2O.

**Q.** And the Creatinine [4]?
**A.** The Creatinine was 133 (102–152) μmol/L.

**Q.** And the Hemoglobin [4]?
**A.** Its Hemoglobin is 116 (107–128) g/L.

**Q.** And the MAP [4]?
**A.** Its MAP is 66 (55–97) mmHg.

**Q.** And the MPAP [4]?
**A.** Its MPAP is 46 (35–50) mmHg.

**Q.** What about the P/F [4] of the same compound?
**A.** Its P/F is 22 (11–42) kPa.

**Q.** What about the PCWP [4] of the same compound?
**A.** Its PCWP is 18 (16–21) mmHg.

**Q.** And the PIP [4]?
**A.** The PIP was 33 (29–37) cmH20.

**Q.** And the PVR [4]?
**A.** The PVR was 643 (390–1057) dynes*sec/cm^5.

**Q.** And the PaCO2 [4]?
**A.** The PaCO2 was 5.8 (4.9–7.1) kPa.

**Q.** What about the SVR [4] of the same compound?
**A.** Its SVR is 1314 (1089–2375) dynes*sec/cm^5.

**Q.** And the SvO2 [4]?
**A.** Its SvO2 is 55 (25–66) %.

**Q.** And the Temperature [4]?
**A.** The Temperature was 38.5 (38.0–40.1) °C.

**Q.** And the pH [4]?
**A.** The pH was 7.16 (7.07–7.26).

**Q.** What about the “Mortalitet: Tidpunkt” value (time of death or termination, individual animals, listed as sEH-i 950) of the same compound?
**A.** The value was 6 h and 9 h and 8 h.
